The text below walks through data of patent US9642367B2, “Microbicidal composition” (Dow Global Technologies LLC, priority 2013, dated 2017).

Holding throughout (type): cell-based
For assay [1], the system named is Escherichia coli (E. coli, ATCC #8739). The assay can be described thus: MIC / synergy evaluation in 96 well microtiter plate, bacteria in Tryptic Soy Broth. To be noted: visual turbidity; for MIC: Escherichia coli, ATCC8739, single active acting alone, read-out: Minimum Inhibitory Concentration. The source says:
(§1) One measure of synergism is the industrially accepted method described by Kull, F. C.; Eisman, P. C.; Sylwestrowicz, H. D. and Mayer, R. L., in Applied Microbiology 9:538-541 (1961), using the ratio determined by the formula: Qa/QA+Qb/QB=Synergy Index (“SI”) wherein:
(§2) QA=concentration of compound A (first component) in ppm, acting alone, which produced an end point (MIC of Compound A).
(§3) Qa=concentration of compound A in ppm, in the mixture, which produced an end point.
(§4) QB=concentration of compound B (second component) in ppm, acting alone, which produced an end point (MIC of Compound B).
(§5) Qb=concentration of compound B in ppm, in the mixture, which produced an end point.
(§6) When the sum of Qa/QA and Qb/QB is greater than one, antagonism is indicated. […] The lower the SI, the greater the synergy shown by that particular mixture. The minimum inhibitory concentration (MIC) of a microbicide is the lowest concentration tested under a specific set of conditions that prevents the growth of added microorganisms. The microorganisms tested were Escherichia coli(E. coli, ATCC #8739), a yeast, Candida albicans (C. albicans, ATCC #10231) and mold, Aspergillus niger (A. niger, ATCC #16404).
(§7) MBIT synergy with a secondary biocide was determined by evaluating the minimum biocide or biocide blend concentration required to inhibit microbial growth. All studies were conducted using a 96 well microtiter plate format. For all studies, 200 μl of microbial growth media, containing various concentrations of MBIT alone, the secondary biocide alone, or combinations of both biocide chemistries, was added to individual wells of a microtiter plate. Specifically, Tryptic Soy Broth (TSB) was utilized for bacteria (E. coli, ATCC #8739), Yeast Malt Extract Broth (YMB) for yeast (Candida albicans, ATCC #10231) and Potato Dextrose Broth (PDB) for mold (Aspergillus niger, ATCC #16404). Test organisms, at a final concentration of 10^4 CFU/mL or 10^4 spores/mL, were applied to each well in parallel experiments to initiate the MIC evaluations. Growth medium containing no biocide was utilized as a control in each experimental setup to confirm the growth viability of each organism. Eight concentrations (2-fold dilutions) of each individual biocide were evaluated in the microbial growth inhibition studies in addition to the 64 possible combinations of these biocide concentrations. Evaluation of the individual biocide concentrations is required to achieve an inhibitory concentration end point for synergy index calculation. […] Individual wells were scored as growth or no growth based on visual organism growth turbidity.
(§8) These microorganisms are representative of natural contaminants in many consumer and industrial applications. […] (yeast and mold) or 30° C. (bacteria).

Assay [2] relates to Candida albicans (C. albicans, ATCC #10231). In words: MIC / synergy evaluation in 96 well microtiter plate, yeast in Yeast Malt Extract Broth. The settings on record: visual turbidity; for MIC: Candida albicans, ATCC10231, single active acting alone, read-out: Minimum Inhibitory Concentration.
Text: as §1, §2, §3, §4, §5, §6, §7, §8

The subject of assay [3] is Aspergillus niger (A. niger, ATCC #16404). In words: MIC / synergy evaluation in 96 well microtiter plate, mold in Potato Dextrose Broth. The settings on record: ATCC16404, single active acting alone, visual turbidity, read-out: Minimum Inhibitory Concentration.
Text: as §1, §2, §3, §4, §5
When the sum of Qa/QA and Qb/QB is greater than one, antagonism is indicated. […] The lower the SI, the greater the synergy shown by that particular mixture. […]
MBIT synergy with a secondary biocide was determined by evaluating the minimum biocide or biocide blend concentration required to inhibit microbial growth. […] Eight concentrations (2-fold dilutions) of each individual biocide were evaluated in the microbial growth inhibition studies in addition to the 64 possible combinations of these biocide concentrations. […] Individual wells were scored as growth or no growth based on visual organism growth turbidity. […]

The structures appear in SMILES notation.

As to `O=C(O)CCCCCCCC(=O)O` [Azelaic acid, azelaic acid], the MIC came to 2500 µg/mL in assay [1] and 188 µg/mL in assay [2].

Take `CC(O)C(=O)O` (stereo not shown) [Lactic acid, lactic acid]: the MIC was 5000 µg/mL in assay [1], 750 µg/mL in assay [2] and 40000 µg/mL in assay [3].

Consider `Cn1sc2ccccc2c1=O` [MBIT, N-methyl-1,2-benzisothiazolin-3-one], for which the “Minimum Inhibitory Concentration” value in assay [1] (single active acting alone) was found to be 12.50 ppm; in assay [2] (single active acting alone), 1.50 ppm.

`C=CCCCCCCCCC(=O)O` [Undecylenic acid, undecylenic acid]: the MIC in assay [1] is 10000 µg/mL; in assay [2], 7.82 µg/mL; in assay [3] it was 38 µg/mL.
